SMILES strings stand for the structures. Where a name gives a salt, the structure may show the parent alone. Read-outs that look alike come from different tables or passages of the source. A value given as a limit tells only on which side of the number the result lay.

A short description of data set [1]: FAERS analysis of reported rhabdomyolysis cases per suspect drug. The following applies: for (%) of total rhabdomyolysis cases / Number of Rhabdomyolysis Cases / Number of Rhabdomyolysis Cases (n = 6583): FAERS 2004 to 31 March 2020; for (%) of total rhabdomyolysis cases: of 27,140 cases; for Number of Rhabdomyolysis Cases: total 27,140 rhabdomyolysis cases, some cases with more than one suspected drug; for ROR (reported odds ratio): rhabdomyolysis with suspected drug vs all other drugs in FAERS; for Number of Death Cases (n = 576): monotherapy rhabdomyolysis cases with fatal outcome; for (%) of monotherapy rhabdomyolysis cases: of 6583 cases; for Number of Rhabdomyolysis Cases (n = 6583): suspected drug reported as a single drug used (monotherapy).
Experimental: (§1) Due to the quarterly updating of the database by the FDA, the searches were performed using the term “rhabdomyolysis” on one occasion to ensure the data were extracted at that specified period. All individual files were downloaded and saved from this one timepoint to specify the analysis period used in this study. Further refinement was performed using Microsoft Excel to extract only cases where the suspect drug was reported as a monotherapy, using the generic name of the suspect drugs. To ensure data accuracy, any case reported by a consumer or company underwent further checks to ensure it had not been previously reported by a healthcare provider, by confirming that no duplication of case ID was present.

Another data set concerns L6 cells. Description: Acute metabolic switch assay (cellular ATP content, glucose vs galactose media) in L6 differentiated myotubes. Conditions: for IC50-ATPglu/IC50-ATPgal: ratio ≥ 2 = mitotoxic. As to the method:
They were then seeded into collagen-coated wells (50 µg/mL in 0.02 M of acetic acid) at a density of 16,000 cells/100 μL/well (96 well plates) and 10,000 cells/100 μL/well (XF 96-well cell culture microplates). The cells were next incubated for 24 h in complete growth medium to promote adherence, after which the growth medium was removed and the cells washed twice with 1× HBSS. The L6 myoblasts were then cultured in differentiation medium consisting of high-glucose DMEM (25 mM) supplemented with L-glutamine (4 mM), sodium pyruvate (1 mM), HEPES (5 mM), and horse serum (2% v/v). Fresh differentiation medium was provided every 48 h for 7 days.
On the day of the assay, the media on the differentiated myotubes were replaced with either serum-free high-glucose (DMEM, 25 mM of glucose, 4 mM of L-glutamine, 1 mM of sodium pyruvate, and 5 mM of HEPES) or serum-free galactose (DMEM, 10 mM of galactose, 6 mM of L-glutamine, 1 mM of sodium pyruvate, and 5 mM of HEPES) media (100 µL) for 2 h (37 °C, 5% CO2). The glucose and galactose media were removed and replaced with drug-dosing solutions in either glucose or galactose media as appropriate, before incubation (2 h, 37 °C, 5% CO2). […] Vehicle control was included in each experiment.
The cellular ATP content was measured using a bioluminescence assay kit, alongside the concomitant measurement of protein using a bicinchoninic acid (BCA) assay kit to normalise ATP data to the total protein. Briefly, the cells were lysed using ATP lysis buffer (50 µL/well) and the plate was shaken (5 min). According to the manufacturer’s instructions, 40 µL of ATP reagent was added to each well containing 5 µL of cell lysate in a white 96-well plate. The […] luminescence signal was measured immediately using a plate reader (Varioskan, Thermo Scientific, Schaumburg, IL USA).

The conditions of data set [2]: human.
Experimental: as §1
Setting [3] is: Rattus norvegicus, L6, 2 h, read-out: ATP IC50 Galactose.
Where [4] appears, read: Rattus norvegicus, L6, 2 h, read-out: ATP IC50 Glucose.

As to `CC(=O)Nc1ccc(O)cc1` [Acetaminophen], in data set [1], the “(%) of total rhabdomyolysis cases” value came out at 1.7%, the “Number of Rhabdomyolysis Cases” value was 449 and the “ROR (reported odds ratio)” value is 0.3.

Take `Cc1nnc2n1-c1ccc(Cl)cc1C(c1ccccc1)=NC2` [Alprazolam]: in data set [1], the “(%) of total rhabdomyolysis cases” value is 1.1%, the “Number of Rhabdomyolysis Cases” value amounted to 290 and the “ROR (reported odds ratio)” value is on record as 0.4.

As to `O=C1CCc2ccc(OCCCCN3CCN(c4cccc(Cl)c4Cl)CC3)cc2N1` [Aripiprazole], in data set [1], the “(%) of total rhabdomyolysis cases” value is listed as 1.5%, the “Number of Rhabdomyolysis Cases” value is recorded as 419 and the “ROR (reported odds ratio)” value is on record as 0.4.

With `CC(=O)Oc1ccccc1C(=O)O` [Aspirin], in data set [1], the “(%) of total rhabdomyolysis cases” value stood at 1.2%, the “Number of Rhabdomyolysis Cases” value is on record as 313 and the “ROR (reported odds ratio)” value stood at 0.2.

As a reminder, the IC50 is the concentration that gives 50% inhibition. As for `CC(C)c1c(C(=O)Nc2ccccc2)c(-c2ccccc2)c(-c2ccc(F)cc2)n1CC[C@@H](O)C[C@@H](O)CC(=O)O` [Atorvastatin acid], the IC50-ATPglu/IC50-ATPgal is given as ~1 (n/d) with L6 cells (L6 cells, 2 h exposure) and 1 in the data set with L6 cells (L6 cells, 2 h exposure, listed as atorvastatin acid). Moreover, the IC50 with L6 cells (read-out: ATP IC50 Galactose, L6 cells, 2 h exposure, galactose serum-free media, mean ± S.D. (n = 3)) was greater than 300 µM; in the data set on L6 cells (read-out: ATP IC50 Glucose, L6 cells, 2 h exposure, glucose serum-free media, mean ± S.D. (n = 3)), greater than 300 µM.

For the molecule `CC(C)c1c(C(=O)Nc2ccccc2)c(-c2ccccc2)c(-c2ccc(F)cc2)n1CC[C@@H](O)C[C@@H](O)CC(=O)O` [Atorvastatin], in data set [1], the “(%) of total rhabdomyolysis cases” value stood at 12.2%, the “Number of Rhabdomyolysis Cases” value is on record as 3307, the “Number of Death Cases (n = 576)” value was 169 and the “(%) of monotherapy rhabdomyolysis cases” value was 21.1%. Besides, in data set [1], the “ROR (reported odds ratio)” value was 4.3 and the “Number of Rhabdomyolysis Cases (n = 6583)” value (shortened to “Number … (n = 6583)”) stood at 1386.

For the molecule `CC[C@H]1OC(=O)[C@H](C)[C@@H](O[C@H]2C[C@@](C)(OC)[C@@H](O)[C@H](C)O2)[C@H](C)[C@@H](O[C@@H]2O[C@H](C)C[C@H](N(C)C)[C@H]2O)[C@](C)(OC)C[C@@H](C)C(=O)[C@H](C)[C@@H](O)[C@]1(C)O` [Clarithromycin], in data set [1], the “(%) of total rhabdomyolysis cases” value came to 1.6%, the “Number of Rhabdomyolysis Cases” value is reported as 427 and the “ROR (reported odds ratio)” value is recorded as 1.2.

Turning to `CN1CCN(C2=Nc3cc(Cl)ccc3Nc3ccccc32)CC1` [Clozapine], in data set [1], the “(%) of total rhabdomyolysis cases” value came to 1.1%, the “Number of Rhabdomyolysis Cases” value is 286, the “Number of Death Cases (n = 576)” value stood at 12 and the “(%) of monotherapy rhabdomyolysis cases” value is recorded as 1.8%. For the same molecule, in data set [1], the “Number … (n = 6583)” value turned out to be 116.

Turning to `CCCCCCCCCC(=O)N[C@@H](Cc1c[nH]c2ccccc12)C(=O)N[C@H](CC(N)=O)C(=O)N[C@@H](CC(=O)O)C(=O)N[C@@H]1C(=O)NCC(=O)N[C@@H](CCCN)C(=O)N[C@@H](CC(=O)O)C(=O)N[C@H](C)C(=O)N[C@@H](CC(=O)O)C(=O)NCC(=O)N[C@H](CO)C(=O)N[C@@H]([C@H](C)CC(=O)O)C(=O)N[C@@H](CC(=O)c2ccccc2N)C(=O)O[C@@H]1C` [Daptomycin], the “Number of Death Cases (n = 576)” value in data set [1] is given as 18. Moreover, in the data set with L6 cells (L6 cells, 2 h exposure), the IC50-ATPglu/IC50-ATPgal is listed as ~1 (n/d). Also, the IC50-ATPglu/IC50-ATPgal in the data set on L6 cells (L6 cells, 2 h exposure, listed as daptomycin) is given as 1. Besides, the half-maximal inhibitory concentration (IC50) in the data set on L6 cells (setting [3]) is greater than 100 µM. In addition, in the data set on L6 cells (setting [4]), the 50% inhibitory concentration (IC50) is greater than 100 µM. Further, in data set [2], the “(%) of monotherapy rhabdomyolysis cases” value came out at 3.5%, the “(%) of total rhabdomyolysis cases” value is 1.4%, the “Number of Rhabdomyolysis Cases” value came to 380 and the “Number … (n = 6583)” value is recorded as 227. Also, the “ROR (reported odds ratio)” value in data set [2] is 3.2.

As for `O=C1[C@H](CC[C@H](O)c2ccc(F)cc2)[C@@H](c2ccc(O)cc2)N1c1ccc(F)cc1` [Ezetimibe], in data set [1], the “(%) of total rhabdomyolysis cases” value stood at 1.9%, the “Number of Rhabdomyolysis Cases” value came out at 501, the “Number of Death Cases (n = 576)” value is recorded as 6 and the “(%) of monotherapy rhabdomyolysis cases” value is 2.5%. In data set [1], the “ROR (reported odds ratio)” value is listed as 2.6 and the “Number … (n = 6583)” value stood at 166. Moreover, the IC50-ATPglu/IC50-ATPgal with L6 cells (L6 cells, 2 h exposure) is recorded as ~1 (n/d). For the same molecule, the IC50-ATPglu/IC50-ATPgal in the data set with L6 cells (L6 cells, 2 h exposure, listed as ezetimibe) is on record as 1. The half-inhibitory concentration (IC50) in the data set with L6 cells (setting [3]) was greater than 300 µM. Moreover, in the data set on L6 cells (setting [4]), the IC50 was greater than 300 µM.

With `NS(=O)(=O)c1cc(C(=O)O)c(NCc2ccco2)cc1Cl` [Furosemide], in data set [1], the “(%) of total rhabdomyolysis cases” value is given as 1.8%, the “Number of Rhabdomyolysis Cases” value stood at 480 and the “ROR (reported odds ratio)” value was determined as 0.8.

For `Cc1ccc(C)c(OCCCC(C)(C)C(=O)O)c1` [Gemfibrozil], in data set [1], the “(%) of total rhabdomyolysis cases” value is recorded as 1.6%, the “Number of Rhabdomyolysis Cases” value is 442 and the “ROR (reported odds ratio)” value turned out to be 15.0. For the same molecule, the “ROR (reported odds ratio)” value in data set [1] (listed as gemfibrozil) turned out to be 15.

For `O=C(CCCN1CCC(O)(c2ccc(Cl)cc2)CC1)c1ccc(F)cc1` [Haloperidol], in data set [1], the “(%) of total rhabdomyolysis cases” value stood at 1.1%, the “Number of Rhabdomyolysis Cases” value was found to be 310 and the “ROR (reported odds ratio)” value is 1.3.

`Nc1nnc(-c2cccc(Cl)c2Cl)c(N)n1` [Lamotrigine]: in data set [1], the “(%) of total rhabdomyolysis cases” value came out at 1.2%, the “Number of Rhabdomyolysis Cases” value is on record as 314 and the “ROR (reported odds ratio)” value is listed as 0.3.

Regarding `CC[C@@H](C(N)=O)N1CCCC1=O` [Levetiracetam], in data set [1], the “(%) of total rhabdomyolysis cases” value worked out at 2.2%, the “Number of Rhabdomyolysis Cases” value is listed as 588, the “Number of Death Cases (n = 576)” value was 8 and the “(%) of monotherapy rhabdomyolysis cases” value turned out to be 5.9%. In addition, in data set [1], the “ROR (reported odds ratio)” value worked out at 0.9 and the “Number … (n = 6583)” value is on record as 386. In the data set with L6 cells (L6 cells, 2 h exposure), the IC50-ATPglu/IC50-ATPgal is on record as ~1 (n/d). Further, the IC50-ATPglu/IC50-ATPgal with L6 cells (L6 cells, 2 h exposure, listed as levetiracetam) came out at 1. In addition, the IC50 with L6 cells (setting [3]) is greater than 300 µM. Also, the IC50 with L6 cells (setting [4]) was greater than 300 µM.

As for `CN(C)C(=N)N=C(N)N` [Metformin], in data set [1], the “(%) of total rhabdomyolysis cases” value is 1.8%, the “Number of Rhabdomyolysis Cases” value is on record as 478 and the “ROR (reported odds ratio)” value came to 0.4.

In the case of `Cc1cc2c(s1)Nc1ccccc1N=C2N1CCN(C)CC1` [Olanzapine], in data set [1], the “Number of Death Cases (n = 576)” value is given as 23.

`COc1ccc2[nH]c([S+]([O-])Cc3ncc(C)c(OC)c3C)nc2c1` (stereo not drawn) [Omeprazole]: in data set [1], the “(%) of total rhabdomyolysis cases” value is given as 1.3%, the “Number of Rhabdomyolysis Cases” value is recorded as 363 and the “ROR (reported odds ratio)” value is listed as 0.5.

For the molecule `OCCOCCN1CCN(C2=Nc3ccccc3Sc3ccccc32)CC1` [Quetiapine], in data set [1], the “(%) of total rhabdomyolysis cases” value was 2.8%, the “Number of Rhabdomyolysis Cases” value is listed as 761, the “Number of Death Cases (n = 576)” value is 26 and the “(%) of monotherapy rhabdomyolysis cases” value stood at 3.0%. For the same molecule, the “Number … (n = 6583)” value in data set [1] turned out to be 199.

With `CC(C)c1nc(N(C)S(C)(=O)=O)nc(-c2ccc(F)cc2)c1/C=C/[C@@H](O)C[C@@H](O)CC(=O)O` [Rosuvastatin], in data set [1], the “(%) of total rhabdomyolysis cases” value is listed as 7.4%, the “Number of Rhabdomyolysis Cases” value is reported as 2008, the “Number of Death Cases (n = 576)” value came out at 47 and the “(%) of monotherapy rhabdomyolysis cases” value was determined as 17.0%. In data set [1], the “ROR (reported odds ratio)” value amounted to 2.9 and the “Number … (n = 6583)” value amounted to 1122. Moreover, the IC50-ATPglu/IC50-ATPgal with L6 cells (L6 cells, 2 h exposure) was ~1 (n/d). In addition, the IC50-ATPglu/IC50-ATPgal in the data set with L6 cells (L6 cells, 2 h exposure, listed as rosuvastatin) is recorded as 1. For the same molecule, the concentration for half-maximal inhibition (IC50) with L6 cells (setting [3]) was greater than 300 µM. In the data set with L6 cells (setting [4]), the half-maximal inhibitory concentration (IC50) is greater than 300 µM.

Turning to `CN[C@H]1CC[C@@H](c2ccc(Cl)c(Cl)c2)c2ccccc21` [Sertraline], in data set [1], the “(%) of total rhabdomyolysis cases” value is recorded as 1.3%, the “Number of Rhabdomyolysis Cases” value is recorded as 347 and the “ROR (reported odds ratio)” value turned out to be 0.4.

For `CCC(C)(C)C(=O)O[C@H]1C[C@@H](C)C=C2C=C[C@H](C)[C@H](CC[C@@H](O)C[C@@H](O)CC(=O)O)[C@H]21` [Simvastatin acid, Simvastatin hydroxy acid ammonium salt], the IC50-ATPglu/IC50-ATPgal was ~1 (n/d) with L6 cells (L6 cells, 2 h exposure) and 1 with L6 cells (L6 cells, 2 h exposure, listed as simvastatin acid). For the same molecule, the IC50 with L6 cells (setting [3]) and in the data set with L6 cells (setting [4]) was greater than 300 µM each time.

On to `COc1ccc(C(CN(C)C)C2(O)CCCCC2)cc1` (stereo not drawn) [Venlafaxine], for which, in data set [1], the “(%) of total rhabdomyolysis cases” value is 1.6%, the “Number of Rhabdomyolysis Cases” value was found to be 425 and the “ROR (reported odds ratio)” value was 0.5.

For the origin of these results see article PMC10216605, “Developing In Vitro Models to Define the Role of Direct Mitochondrial Toxicity in Frequently Reported Drug-Induced Rhabdomyolysis” (Biomedicines, 2023).
